System: fat grafts (human lipoaspirate)
Test: In-vivo murine model of adipose tissue reconstruction: lipoaspirate fat graft perfused via silk fibroin-based catheter and osmotic pump
Description: Female athymic nude mice were divided into 3 groups: animals treated with insulin (n=24), dexamethasone (n=15), or PBS vehicle (n=10). The groups were further subdivided into four different doses for insulin (e.g., ˜100 μg, ˜300 μg, ˜650 μg, or ˜1000 μg) or three different doses for dexamethasone (e.g., ˜1 mg/ml, ˜2 mg/ml, ˜3 mg/ml). Osmotic pumps that can deliver a fluid with a selected flow rate for a period of time were prepared with the insulin or dexamethasone solution or PBS vehicle. In this Example, ALZET 4-week osmotic pumps with a selected flow rate of ˜0.11 μl/hr were used. One end of the silk fibroin-based catheter was connected to the pump, e.g., using medical grade silicone (e.g., Dow Corning) (FIG. 8A). The silk catheter/pump construct was primed for 48 hours at 37° C., per manufacturer's instructions.
Lipoaspirate grafts were obtained from human subcutaneous abdominal fat during scheduled elective surgery and processed for injection under laboratory conditions. Lipoaspirate was loaded into ˜1 ml syringes in sterile fashion. Mice were anesthetized with 2% isoflurane in oxygen at the time of the procedure. Once the anesthetic plane was obtained, the animals were prepped for sterile surgery. Each animal received two bilateral ˜500 μl subcutaneous injections of lipoaspirate on the dorsal region, for example, through a 16G Coleman cannula using the fan-injection technique, which uniformly spreads the fat graft created beneath the cutaneous layer. For each animal, one of the two fat grafts received a silk fibroin-based catheter connected to an implantable osmotic pump. The silk catheter/pump was implanted subcutaneously through a small incision between the scapulae, and the fat graft was placed surrounding the silk fibroin-based catheter. The incision for the catheter/pump implantation was closed with a standard wound clip. To prevent and/or reduce pain and discomfort, mice were given subcutaneous injections of ˜5 mg/kg ketoprofen (Fort Dodge Animal Health, Fort Dodge, Iowa) immediately after the surgical procedure and every 24 hours as needed.
At 4 weeks post surgery, the mice were euthanized using carbon dioxide asphyxiation followed by cervical dislocation, and graft tissue was isolated from the bilateral dorsal injection sites. Explants were assessed for mass on a standard laboratory balance, and volume was measured using a gas pycnometer (Accupyc II 1340; Micrometrics, Atlanta, Ga.). Immediately after the dimensional analysis was complete, the tissue samples were fixed in 10% neutral buffered formalin and processed and embedded in paraffin.

Molecule | dose with the largest effect on fat graft volume (dexamethasone at ~0.11 μL/hr, 28 days post-implantation) | adverse events during the therapy (mouse, in vivo) | survival of animals (highest insulin groups, ~1000 μg and ~650 μg) | group (dose) with the highest volume retention (insulin at ~0.11 μL/hr, 28 days post-implantation) | H&E: cellular response to the silk fibroin-based catheter (insulin doses, 28 days) | deaths (insulin ~300 μg group) | fat retention and adipogenesis (insulin ~300 μg group, 28 days) | H&E: tissue around the silk fibroin-based catheter (insulin ~1000 μg dose, 28 days) | volume retention of fat grafts, statistical significance (insulin ~100, ~300, ~650, ~1000 μg at ~0.11 μL/hr, 28 days post-implantation, gas pycnometry) | fat graft health / biocompatibility (insulin-treated mice, 4 weeks)
C[C@@H]1C[C@H]2[C@@H]3CCC4=CC(=O)C=C[C@]4(C)[C@@]3(F)[C@@H](O)C[C@]2(C)[C@@]1(O)C(=O)CO [dexamethasone] | ~2 mg/mL | no adverse events | – | – | – | – | – | – | – | –
insulin | – | – | generally died during the study period | ~300 µg | little to no cellular response | no deaths due to drug overdose | trend toward fat retention and adipogenesis | a fibrous tissue was observed to surround the silk fibroin-based catheter | no statistical significance in volume retention | no evidence of oil cysts or adverse biocompatibility reaction

Source: patent US20160279299A1, “SILK FIBROIN-BASED FLUID DELIVERY SYSTEMS AND DEVICES” (TRUSTEES OF TUFTS COLLEGE, priority 2013, published 2016)
